Assay results taken from publication PMC6522510 (Nature Communications, 2019).
Counter-ions that a name gives are not always drawn. Like-named read-outs stand apart in the source and are kept apart here.

How the values were obtained:
Design in all cases: species or system AML cell lines (8); Primary HTS, single concentration about 10 uM, Cell Titer Glo viability; log10 luminescence, per cent inhibition relative to cycloheximide control
Settings in all cases: 72 h, relative to cycloheximide control, log10 luminescence, inhibitor
[1] = system: CHRF288-11
[2] = system: CMK
[3] = system: CMS
[4] = system: M07e
[5] = system: ML-2
[6] = system: MOLM-13
[7] = system: MV4-11
[8] = system: U937

SMILES	CHRF288-11 %inh [1] [%]	CMK %inh [2] [%]	CMS %inh [3] [%]	M07e %inh [4] [%]	ML-2 %inh [5] [%]	MOLM-13 %inh [6] [%]	MV4-11 %inh [7] [%]	U937 %inh [8] [%]	CHRF288-11 %inh ([1]; CHRF288-11 %inh, 10 µM) [%]	CMK %inh ([2]; CMK %inh, 10 µM) [%]	CMS %inh ([3]; CMS %inh, 10 µM) [%]	M07e %inh ([4]; M07e %inh, 10 µM) [%]	ML-2 %inh ([5]; ML-2 %inh, 10 µM) [%]	MOLM-13 %inh ([6]; MOLM-13 %inh, 10 µM) [%]	MV4-11 %inh ([7]; MV4-11 %inh, 10 µM) [%]	U937 %inh ([8]; U937 %inh, 10 µM) [%]
CCC1(C)CC(=O)NC1=O (centres unmarked) [SJ000285397-7, ETHOSUXIMIDE]	0.04293	-1.781	-0.558	-0.04938	3.243	28.73	-0.6847	0.5757								
OCCN1CCN(CCCN2c3ccccc3Sc3ccc(Cl)cc32)CC1 [SJ000286016-8, PERPHENAZINE]									40.76	10.21	3.223	5.089	2.921	2.324	2.594	5.279
C[C@]12C=CC(=O)C=C1CC[C@@H]1[C@@H]2C(=O)C[C@@]2(C)[C@H]1CC[C@]2(O)C(=O)CO [SJ000285543-5, PREDNISONE]									4.454	-3.757	-1.984	3.17	-0.9024	-2.385	0.6819	-0.6066
CC(=O)NCc1cccc(C#Cc2cncnc2Nc2ccc(OCc3cccc(F)c3)c(Cl)c2)c1 [SJ000573245-1, U17810/92/1]	-2.703	4.208	2.982	1.428	1.051	4.772	1.627	4.477								
Cn1cc(C2=C(Sc3ccccc3)C(=O)NC2=O)c2ccccc21 [SJ000581108-1]	15.38	17.14	5.691	13.92	5.065	79.89	3.129	7.938								
C[C@@H]1CN(c2c(F)c(N)c3c(=O)c(C(=O)O)cn(C4CC4)c3c2F)C[C@H](C)N1 [SJ000556731-1, SPARFLOXACIN]									-1.018	-4.344	-1.257	-0.05975	2.718	-3.504	7.588	1.66
CC(=O)OC/C=C(C)/C=C/C=C(C)/C=C/C1=C(C)CCCC1(C)C [SJ000285933-3, RETINYL ACETATE]	13.53	13.65	2.535	2.591	2.843	0.103	3.526	8.926								
CCCC(CCC)C(=O)O [SJ000287008-5, VALPROATE SODIUM | VALPROIC ACID SODIUM | DIVALPROEX SODIUM | SODIUM VALPROATE | ABBOTT-44090 | NIK-313 | NIK-317 | VALPROATE SODIUM | VALPROIC ACID SODIUM SALT | | SODIUM VALPROATE | VALPROATE SODIUM | VALPROIC ACID SODIUM SALT | ABBOTT-44090 | NIK-313 | NIK-317 | | SODIUM VALPROATE | VALPROIC ACID SODIUM SALT (SODIUM VALPROATE)]									8.896	-3.296	1.675	-4.206	0.7854	-1.216	-0.02212	-1.54
Cn1cc(C2=C(c3cn(C)c4ncccc34)C(=O)NC2=O)c2ccccc21 [SJ000581101-1]	23.35	41.81	2.698	5.727	0.3677	47.28	0.9422	8.822								
C#Cc1cccc(Nc2ncnc3ccc(OCCCCNCCS(C)(=O)=O)cc23)c1 [SJ000573075-1, U14819/194/1]	4.443	9.032	3.196	-0.9936	4.028	9.087	-0.7985	-0.213								
CCCNc1cccc(-n2ncc3c(N/N=C/c4ccncc4)ncnc32)c1 [SJ000573085-1, U17680/65/1]	2.576	0.2304	0.7041	4.312	-0.9551	-1.209	-0.4908	-0.2236								
CC(=O)Nc1cccc(C#Cc2cncnc2Nc2ccc(OCc3cccc(F)c3)c(Cl)c2)c1 [SJ000573332-1, U21935/99/1]	3.642	-0.8317	0.8612	1.101	1.213	0.3704	0.9824	4.462								
CCS(=O)(=O)c1ccc(OC)c(Nc2nccc(N(C)c3ccc4c(C)n[nH]c4c3)n2)c1 [SJ000573103-1, U20513/4/2]	5.806	6.86	9.95	2.221	-1.801	9.892	5.714	1.879								
O=C(O[C@@H]1C[C@@H]2C[C@H]3C[C@H](C1)N2CC3=O)c1c[nH]c2ccccc12 [SJ000565162-1, DOLASETRON MESYLATE]	-2.852	0.6983	-2.789	0.4101	0.9019	27.78	-0.3278	-1.048								
Cn1cc(C2=C(c3cccc4ccccc34)C(=O)NC2=O)c2ccccc21 [SJ000581136-1]	6.432	2.941	3.922	1.122	-1.062	-0.09214	3.742	2.302								
Fc1ccc(-c2ncn(C3CCNCC3)c2-c2ccnc(Oc3ccccc3)n2)cc1 [SJ000573013-1, JB19236-077B1]	6.56	-1.927	-0.5294	0.9358	1.79	-2.821	0.9088	2.101								
